These are literature values, as cited in patent US20240342302A1, “DEGRADER-ANTIBODY CONJUGATES AND METHODS OF USING SAME” (Angiex, Inc., priority 2021, published 2024).

The conditions of data set [1]: patients treated with CA4P.

As for `CN(C)CC#Cc1ccc(OCCCc2sc(N3CCc4cccc(C(=O)Nc5nc6ccccc6s5)c4C3)nc2C(=O)O)c(F)c1` [A115463], the “toxicity in the clinic” value is “on-target and dose-limiting thrombocytopenia”.
`CC1(C)CCC(c2ccc(Cl)cc2)=C(CN2CCN(c3ccc(C(=O)NS(=O)(=O)c4ccc(N[C@H](CCN5CCOCC5)CSc5ccccc5)c(S(=O)(=O)C(F)(F)F)c4)cc3)CC2)C1` [ABT 263]: the “toxicity in the clinic” value is “on-target and dose-limiting thrombocytopenia”.
For `COc1ccc(/C=C\c2cc(OC)c(OC)c(OC)c2)cc1OP(=O)(O)O` [CA4P], the cardiovascular adverse events entry in data set [1] was “seven patients have experienced heart attacks”.
